This note sets out measurements from ChEMBL document CHEMBL5625249, “Optimization and antifungal activity of quinoline derivatives linked to chalcone moiety combined with FLC against Candida albicans” (Eur J Med Chem, 2023).

Type in all cases: functional
The subject of experiment [1] is Candida albicans. In words: Synergistic antifungal activity against Clinical FLC-resistant Candida albicans 23 measured after 24 hrs in presence of fluconazole by microdilution method. Background: Broth dilution looks for growth in wells or tubes with falling amounts of substance.
Experiment [2] deals with Candida albicans. The experiment is described as follows: Synergistic antifungal activity against FLC-sensitive Candida albicans SC5314 measured after 24 hrs in presence of fluconazole by microdilution method.
Experiment [3] has as its system Candida albicans. The experiment is described as follows: Synergistic antifungal activity against Clinical FLC-resistant Candida albicans 23 assessed as fractional inhibitory concentration index measured after 24 hrs in presence of fluconazole by microdilution method.
Experiment [4] concerns Candida albicans. In words: Synergistic antifungal activity against FLC-sensitive Candida albicans SC5314 assessed as fractional inhibitory concentration index measured after 24 hrs in presence of fluconazole by microdilution method.
The subject of experiment [5] is Candida albicans. In words: Antifungal activity against Clinical FLC-resistant Candida albicans 23 measured after 24 hrs by microdilution method.
In experiment [6] the test system is Candida albicans. The experiment is described as follows: Antifungal activity against FLC-sensitive Candida albicans SC5314 measured after 24 hrs by microdilution method.

Usually MIC80 stands for the lowest concentration that inhibits either 80% of growth or 80% of the strains tested, depending on the study.

In the case of `CN1CCN(c2nc3ccccc3cc2/C=C/C(=O)c2ccc(N3CCN(S(C)(=O)=O)CC3)cc2)CC1`, the MIC80 in the experiment on Candida albicans [1] is 22.5 µg/mL; in the experiment on Candida albicans [2], 28.1 µg/mL; with Candida albicans [5], over 40 µg/mL; against Candida albicans [6] it was over 40 µg/mL. Further, the figures for the “fractional inhibitory concentration index (FICI)” value with Candida albicans [3] and in the experiment with Candida albicans [4] were 0.56 and 5.2, respectively.
In the case of `C=CC(=O)N1CCN(c2ccc(C(=O)/C=C/c3cc4ccccc4nc3N3CCN(C)CC3)cc2)CC1`, the MIC80 in the experiment with Candida albicans [1] was 26.4 µg/mL; in the experiment on Candida albicans [2], 4.11 µg/mL; against Candida albicans [5] it was over 40 µg/mL; against Candida albicans [6] it was over 40 µg/mL. In addition, the “fractional inhibitory concentration index (FICI)” value in the experiment with Candida albicans [3] turned out to be 0.66; in the experiment on Candida albicans [4] it was 0.76.
Regarding `CN1CCN(c2nc3ccccc3cc2/C=C/C(=O)c2ccc(N3CCN(C(=O)c4ccc(Cl)cc4)CC3)cc2)CC1`, the MIC80 in the experiment with Candida albicans [1] was 1.49 µg/mL; in the experiment with Candida albicans [2], 0.64 µg/mL; in the experiment with Candida albicans [5] it was over 40 µg/mL; against Candida albicans [6], over 40 µg/mL. Besides, the entries for the “fractional inhibitory concentration index (FICI)” value with Candida albicans [3] and with Candida albicans [4] were 0.04 and 0.12, respectively.
For `C=C(C)C(=O)N1CCN(c2ccc(C(=O)/C=C/c3cc4ccccc4nc3N3CCN(C)CC3)cc2)CC1`, the MIC80 in the experiment on Candida albicans [1] is 4.93 µg/mL; in the experiment on Candida albicans [2] it was 3.71 µg/mL; against Candida albicans [5], over 40 µg/mL; in the experiment on Candida albicans [6], over 40 µg/mL. For the same compound, the “fractional inhibitory concentration index (FICI)” value came to 0.12 in the experiment on Candida albicans [3] and 0.69 in the experiment with Candida albicans [4].
As for `CN1CCN(c2nc3ccccc3cc2/C=C/C(=O)c2ccc(N3CCN(S(=O)(=O)c4ccc(C(F)(F)F)cc4)CC3)cc2)CC1`, the MIC80 was 1.15 µg/mL in the experiment on Candida albicans [1], over 40 µg/mL in the experiment with Candida albicans [2], over 40 µg/mL in the experiment with Candida albicans [5] and over 40 µg/mL against Candida albicans [6]. Besides, the “fractional inhibitory concentration index (FICI)” value in the experiment on Candida albicans [3] worked out at 0.03.
Regarding `CC(=O)N1CCN(c2ccc(C(=O)/C=C/c3cc4ccccc4nc3N3CCN(C)CC3)cc2)CC1`, the MIC80 in the experiment on Candida albicans [1], in the experiment on Candida albicans [2], against Candida albicans [5] and with Candida albicans [6] was over 40 µg/mL in each case.
For the compound `CN1CCN(c2nc3ccccc3cc2/C=C/C(=O)c2ccc(N3CCN(S(=O)(=O)c4ccc(F)cc4)CC3)cc2)CC1`, the MIC80 is 1.14 µg/mL in the experiment on Candida albicans [1], 18.3 µg/mL in the experiment with Candida albicans [2], over 40 µg/mL in the experiment with Candida albicans [5] and over 40 µg/mL against Candida albicans [6]. For the same compound, the results for the “fractional inhibitory concentration index (FICI)” value with Candida albicans [3] and with Candida albicans [4] were 0.03 and 3.39, respectively.
For the compound `COc1ccc(C(=O)CN2CCN(c3ccc(C(=O)/C=C/c4cc5ccccc5nc4N4CCN(C)CC4)cc3)CC2)cc1OC`, the MIC80 in the experiment on Candida albicans [1] is 28.1 µg/mL; with Candida albicans [2], 5.5 µg/mL; in the experiment on Candida albicans [5] it was over 40 µg/mL; in the experiment with Candida albicans [6], over 40 µg/mL. Also, the figures for the “fractional inhibitory concentration index (FICI)” value with Candida albicans [3] and in the experiment with Candida albicans [4] were 0.7 and 1.01, respectively.
Consider `CN1CCN(c2nc3ccccc3cc2/C=C/C(=O)c2ccc(N3CCN(S(=O)(=O)c4ccc(OC(F)(F)F)cc4)CC3)cc2)CC1`, for which the MIC80 in the experiment with Candida albicans [1] is 4.05 µg/mL; in the experiment on Candida albicans [2], 4.31 µg/mL; against Candida albicans [5], over 40 µg/mL; with Candida albicans [6], over 40 µg/mL. The “fractional inhibitory concentration index (FICI)” value is recorded as 0.1 in the experiment with Candida albicans [3] and 0.8 in the experiment with Candida albicans [4].
As for `CN1CCN(c2nc3ccccc3cc2/C=C/C(=O)c2ccc(N3CCN(Cc4ccc(C#N)cc4)CC3)cc2)CC1`, the MIC80 is 5.4 µg/mL with Candida albicans [1], 4.73 µg/mL in the experiment with Candida albicans [2], over 40 µg/mL with Candida albicans [5] and over 40 µg/mL in the experiment with Candida albicans [6]. Also, the figures for the “fractional inhibitory concentration index (FICI)” value with Candida albicans [3] and in the experiment with Candida albicans [4] were 0.14 and 0.88, respectively.
In the case of `COC(=O)CN1CCN(c2ccc(C(=O)/C=C/c3cc4ccccc4nc3N3CCN(C)CC3)cc2)CC1`, the MIC80 in the experiment on Candida albicans [1] was over 40 µg/mL; in the experiment with Candida albicans [2], 14.1 µg/mL; against Candida albicans [5] it was over 40 µg/mL; with Candida albicans [6], over 40 µg/mL. Also, the “fractional inhibitory concentration index (FICI)” value in the experiment on Candida albicans [4] was 2.6.
Consider `Cc1ccc(C(=O)CN2CCN(c3ccc(C(=O)/C=C/c4cc5ccccc5nc4N4CCN(C)CC4)cc3)CC2)cc1`, for which the MIC80 with Candida albicans [1] is 33.4 µg/mL; in the experiment with Candida albicans [2], 5.68 µg/mL; in the experiment with Candida albicans [5], over 40 µg/mL; in the experiment with Candida albicans [6], over 40 µg/mL. Also, the “fractional inhibitory concentration index (FICI)” value was 0.83 in the experiment with Candida albicans [3] and 1.05 in the experiment with Candida albicans [4].
Consider `CN1CCN(c2nc3ccccc3cc2/C=C/C(=O)c2ccc(N3CCN(C(=O)CCCl)CC3)cc2)CC1`, for which the MIC80 in the experiment on Candida albicans [1], in the experiment with Candida albicans [2], in the experiment on Candida albicans [5] and against Candida albicans [6] was over 40 µg/mL in each case.
For the compound `CN1CCN(c2nc3ccccc3cc2/C=C/C(=O)c2ccc(N3CCN(S(=O)(=O)c4ccc([N+](=O)[O-])cc4)CC3)cc2)CC1`, the MIC80 in the experiment with Candida albicans [1] is over 40 µg/mL; with Candida albicans [2] it was 17.8 µg/mL; with Candida albicans [5] it was over 40 µg/mL; against Candida albicans [6], over 40 µg/mL. In the experiment on Candida albicans [4], the “fractional inhibitory concentration index (FICI)” value is 3.3.
`CN1CCN(c2nc3ccccc3cc2/C=C/C(=O)c2ccc(N3CCN(CC(=O)c4ccc(F)cc4)CC3)cc2)CC1`: the MIC80 in the experiment with Candida albicans [1] is over 40 µg/mL; in the experiment on Candida albicans [2], 6.74 µg/mL; in the experiment with Candida albicans [5], over 40 µg/mL; in the experiment with Candida albicans [6] it was over 40 µg/mL. Moreover, the “fractional inhibitory concentration index (FICI)” value with Candida albicans [4] was 1.25.
Turning to `CN1CCN(c2nc3ccccc3cc2/C=C/C(=O)c2ccc(N3CCN(Cc4ccc(F)c(F)c4)CC3)cc2)CC1`, the MIC80 with Candida albicans [1] is 6.18 µg/mL; in the experiment with Candida albicans [2], 2.06 µg/mL; against Candida albicans [5], over 40 µg/mL; with Candida albicans [6], over 40 µg/mL. Further, the “fractional inhibitory concentration index (FICI)” value in the experiment with Candida albicans [3] was 0.15; in the experiment on Candida albicans [4], 0.38.
Take `CN1CCN(c2nc3ccccc3cc2/C=C/C(=O)c2ccc(N3CCNCC3)cc2)CC1`: the MIC80 in the experiment with Candida albicans [1] was 24 µg/mL; with Candida albicans [2] it was 2.56 µg/mL; in the experiment on Candida albicans [5] it was over 40 µg/mL; with Candida albicans [6], over 40 µg/mL. Besides, the results for the “fractional inhibitory concentration index (FICI)” value in the experiment on Candida albicans [3] and in the experiment on Candida albicans [4] were 0.6 and 0.47, respectively.
As for `CN1CCN(c2nc3ccccc3cc2/C=C/C(=O)c2ccc(N3CCN(C(=O)/C=C/c4ccccc4)CC3)cc2)CC1`, the MIC80 with Candida albicans [1] is 5.83 µg/mL; in the experiment with Candida albicans [2] it was over 40 µg/mL; in the experiment on Candida albicans [5], over 40 µg/mL; against Candida albicans [6], over 40 µg/mL. Also, the “fractional inhibitory concentration index (FICI)” value in the experiment with Candida albicans [3] was 0.15.
Consider `Cc1ccc(S(=O)(=O)N2CCN(c3ccc(C(=O)/C=C/c4cc5ccccc5nc4N4CCN(C)CC4)cc3)CC2)cc1`, for which the MIC80 in the experiment with Candida albicans [1] was 8.08 µg/mL; in the experiment with Candida albicans [2], over 40 µg/mL; in the experiment with Candida albicans [5], over 40 µg/mL; with Candida albicans [6], over 40 µg/mL. Moreover, the “fractional inhibitory concentration index (FICI)” value in the experiment with Candida albicans [3] was 0.2.
Regarding `CN1CCN(c2nc3ccccc3cc2/C=C/C(=O)c2ccc(N3CCN(CC(=O)c4ccc(Cl)c(Cl)c4)CC3)cc2)CC1`, the MIC80 with Candida albicans [1] is 36.2 µg/mL; in the experiment with Candida albicans [2], 17 µg/mL; against Candida albicans [5] it was over 40 µg/mL; in the experiment with Candida albicans [6], over 40 µg/mL. Further, the “fractional inhibitory concentration index (FICI)” value worked out at 0.91 in the experiment with Candida albicans [3] and 3.14 in the experiment with Candida albicans [4].
Consider `CN1CCN(c2nc3ccccc3cc2/C=C/C(=O)c2ccc(N3CCN(S(=O)(=O)c4ccc(Cl)c(C(F)(F)F)c4)CC3)cc2)CC1`, for which the MIC80 was 26.8 µg/mL in the experiment with Candida albicans [1], 5.31 µg/mL in the experiment with Candida albicans [2], over 40 µg/mL in the experiment on Candida albicans [5] and over 40 µg/mL in the experiment on Candida albicans [6]. The results for the “fractional inhibitory concentration index (FICI)” value in the experiment with Candida albicans [3] and in the experiment with Candida albicans [4] were 0.67 and 0.98, respectively.
